Source: US20040229230A1, “Method for gene isolation by Cre-trap cloning” (priority 2002, published 2004)

What was measured:
[1] = system: parent BW cell line (BW5147 murine thymoma); assay: Culture of parent BW cell line in ganciclovir (HSVTK activity assessment); format: cell-based; details: 5 μM ganciclovir; parent BW cell line without HSVTK
Experimental: (§1) BW subclones with varying levels of GFPCre expression were tested for functional Cre recombinase and HSVTK activity. The pCT.1 (pCT.1^AMP) vector was transiently transfected into each cell line followed by recovery and analysis of plasmid configuration (pCT.1^AMP vs. pCT.1^CAT). Maximal conversion would result in equimolar ratios of pCT.1^AMP and pCT.1^CAT due to the reversible nature of the reaction. […] The kinetics of conversion in cell lines expressing different levels of GFPCre was evaluated. To assess HSVTK activity, all of the cell lines were cultured in 5 μM ganciclovir. […] No spontaneous revertants were isolated, which, given the culture conditions, puts the spontaneous reversion rate at <10^−8.

[2] = system: GFPCre:IRES:HSVTK expressing clones (BW5147 subclones); assay: Culture of GFPCre:IRES:HSVTK expressing BW clones in ganciclovir (HSVTK activity assessment); format: cell-based, murine; details: 5 μM ganciclovir
Description: 2.1 GFPCre:IRES:HSVTK cassette function: A retroviral vector was generated with the cDNA encoding the GFPCre fusion protein followed by an […] ribosomal entry site (IRES) and the cDNA encoding HSVTK (FIG. 2). In addition, the upstream activating sequence (UAS) which binds the Gal4 transcriptional trans-activator was cloned upstream of the GFPCre cDNA (FIG. 2). The BW5147 thymoma was infected with this retrovirus, and subclones (BW-1, 5, 41 and 50) expressing different levels of the GFPCre fusion protein were identified by flow cytometry (FIG. 3).
as §1

## Nc1nc(O)c2ncn(COC(CO)CO)c2n1 [ganciclovir]
[1]
  growth in media with ganciclovir: normal growth
[2]
  growth/survival in media with ganciclovir: all died
